Results taken from paper doi:10.1101/2021.09.30.462449v1 (biorxiv, 2021).

Assays:
Assay in all cases: biochemical
Settings in all cases: read-out: % inhibition mean (Z'Lyte)
[1] = target: EPHA2 (Homo sapiens, UniProt P29317)
[2] = target: MAP4K4 (HGK) (Homo sapiens, UniProt O95819)
[3] = target: HIPK1 (Myak) (Homo sapiens, UniProt Q86Z02)
[4] = target: RET (Homo sapiens, UniProt P07949)
[5] = target: CHEK2 (CHK2) (Homo sapiens, UniProt O96017)
[6] = target: MINK1 (Homo sapiens, UniProt Q8N4C8)
[7] = target: PRKCZ (PKC zeta) (Homo sapiens, UniProt Q05513)
[8] = target: MET M1250T (Homo sapiens, UniProt P08581, M1250T)
[9] = target: SGK (SGK1) (Homo sapiens, UniProt O00141)
[10] = target: ITK (Homo sapiens, UniProt Q08881)
[11] = target: ROS1 (Homo sapiens, UniProt P08922)
[12] = target: CDK17/cyclin Y (Homo sapiens, UniProt Q00537)
[13] = target: AURKB (Aurora B) (Homo sapiens, UniProt Q96GD4)
[14] = target: MAP4K2 (GCK) (Homo sapiens, UniProt Q12851)
[15] = target: SRMS (Srm) (Homo sapiens, UniProt Q9H3Y6)
[16] = target: CSK (Homo sapiens, UniProt P41240)
[17] = target: IGF1R (Homo sapiens, UniProt P08069)
[18] = target: CDK5/p25 (Homo sapiens, UniProt Q00535)
[19] = target: CDC42 BPG (MRCKG) (Homo sapiens, UniProt Q6DT37)
[20] = target: GRK6 (Homo sapiens, UniProt P43250)
[21] = target: RPS6KA3 (RSK2) (Homo sapiens, UniProt P51812)
[22] = target: CDKL5 (Homo sapiens, UniProt O76039)
[23] = target: DCAMKL1 (DCLK1) (Homo sapiens, UniProt O15075)
[24] = target: KIT V559D V654A (Homo sapiens, UniProt P10721, V559D/V654A)
[25] = target: DNA-PK (Homo sapiens, UniProt P78527)
[26] = target: KSR2 (Homo sapiens, UniProt Q6VAB6)
[27] = target: EPHB2 (Homo sapiens, UniProt P29323)
[28] = target: EPHB3 (Homo sapiens, UniProt P54753)
[29] = target: BMX (Homo sapiens, UniProt P51813)

DNA-PK, sequence (P78527 whole entry): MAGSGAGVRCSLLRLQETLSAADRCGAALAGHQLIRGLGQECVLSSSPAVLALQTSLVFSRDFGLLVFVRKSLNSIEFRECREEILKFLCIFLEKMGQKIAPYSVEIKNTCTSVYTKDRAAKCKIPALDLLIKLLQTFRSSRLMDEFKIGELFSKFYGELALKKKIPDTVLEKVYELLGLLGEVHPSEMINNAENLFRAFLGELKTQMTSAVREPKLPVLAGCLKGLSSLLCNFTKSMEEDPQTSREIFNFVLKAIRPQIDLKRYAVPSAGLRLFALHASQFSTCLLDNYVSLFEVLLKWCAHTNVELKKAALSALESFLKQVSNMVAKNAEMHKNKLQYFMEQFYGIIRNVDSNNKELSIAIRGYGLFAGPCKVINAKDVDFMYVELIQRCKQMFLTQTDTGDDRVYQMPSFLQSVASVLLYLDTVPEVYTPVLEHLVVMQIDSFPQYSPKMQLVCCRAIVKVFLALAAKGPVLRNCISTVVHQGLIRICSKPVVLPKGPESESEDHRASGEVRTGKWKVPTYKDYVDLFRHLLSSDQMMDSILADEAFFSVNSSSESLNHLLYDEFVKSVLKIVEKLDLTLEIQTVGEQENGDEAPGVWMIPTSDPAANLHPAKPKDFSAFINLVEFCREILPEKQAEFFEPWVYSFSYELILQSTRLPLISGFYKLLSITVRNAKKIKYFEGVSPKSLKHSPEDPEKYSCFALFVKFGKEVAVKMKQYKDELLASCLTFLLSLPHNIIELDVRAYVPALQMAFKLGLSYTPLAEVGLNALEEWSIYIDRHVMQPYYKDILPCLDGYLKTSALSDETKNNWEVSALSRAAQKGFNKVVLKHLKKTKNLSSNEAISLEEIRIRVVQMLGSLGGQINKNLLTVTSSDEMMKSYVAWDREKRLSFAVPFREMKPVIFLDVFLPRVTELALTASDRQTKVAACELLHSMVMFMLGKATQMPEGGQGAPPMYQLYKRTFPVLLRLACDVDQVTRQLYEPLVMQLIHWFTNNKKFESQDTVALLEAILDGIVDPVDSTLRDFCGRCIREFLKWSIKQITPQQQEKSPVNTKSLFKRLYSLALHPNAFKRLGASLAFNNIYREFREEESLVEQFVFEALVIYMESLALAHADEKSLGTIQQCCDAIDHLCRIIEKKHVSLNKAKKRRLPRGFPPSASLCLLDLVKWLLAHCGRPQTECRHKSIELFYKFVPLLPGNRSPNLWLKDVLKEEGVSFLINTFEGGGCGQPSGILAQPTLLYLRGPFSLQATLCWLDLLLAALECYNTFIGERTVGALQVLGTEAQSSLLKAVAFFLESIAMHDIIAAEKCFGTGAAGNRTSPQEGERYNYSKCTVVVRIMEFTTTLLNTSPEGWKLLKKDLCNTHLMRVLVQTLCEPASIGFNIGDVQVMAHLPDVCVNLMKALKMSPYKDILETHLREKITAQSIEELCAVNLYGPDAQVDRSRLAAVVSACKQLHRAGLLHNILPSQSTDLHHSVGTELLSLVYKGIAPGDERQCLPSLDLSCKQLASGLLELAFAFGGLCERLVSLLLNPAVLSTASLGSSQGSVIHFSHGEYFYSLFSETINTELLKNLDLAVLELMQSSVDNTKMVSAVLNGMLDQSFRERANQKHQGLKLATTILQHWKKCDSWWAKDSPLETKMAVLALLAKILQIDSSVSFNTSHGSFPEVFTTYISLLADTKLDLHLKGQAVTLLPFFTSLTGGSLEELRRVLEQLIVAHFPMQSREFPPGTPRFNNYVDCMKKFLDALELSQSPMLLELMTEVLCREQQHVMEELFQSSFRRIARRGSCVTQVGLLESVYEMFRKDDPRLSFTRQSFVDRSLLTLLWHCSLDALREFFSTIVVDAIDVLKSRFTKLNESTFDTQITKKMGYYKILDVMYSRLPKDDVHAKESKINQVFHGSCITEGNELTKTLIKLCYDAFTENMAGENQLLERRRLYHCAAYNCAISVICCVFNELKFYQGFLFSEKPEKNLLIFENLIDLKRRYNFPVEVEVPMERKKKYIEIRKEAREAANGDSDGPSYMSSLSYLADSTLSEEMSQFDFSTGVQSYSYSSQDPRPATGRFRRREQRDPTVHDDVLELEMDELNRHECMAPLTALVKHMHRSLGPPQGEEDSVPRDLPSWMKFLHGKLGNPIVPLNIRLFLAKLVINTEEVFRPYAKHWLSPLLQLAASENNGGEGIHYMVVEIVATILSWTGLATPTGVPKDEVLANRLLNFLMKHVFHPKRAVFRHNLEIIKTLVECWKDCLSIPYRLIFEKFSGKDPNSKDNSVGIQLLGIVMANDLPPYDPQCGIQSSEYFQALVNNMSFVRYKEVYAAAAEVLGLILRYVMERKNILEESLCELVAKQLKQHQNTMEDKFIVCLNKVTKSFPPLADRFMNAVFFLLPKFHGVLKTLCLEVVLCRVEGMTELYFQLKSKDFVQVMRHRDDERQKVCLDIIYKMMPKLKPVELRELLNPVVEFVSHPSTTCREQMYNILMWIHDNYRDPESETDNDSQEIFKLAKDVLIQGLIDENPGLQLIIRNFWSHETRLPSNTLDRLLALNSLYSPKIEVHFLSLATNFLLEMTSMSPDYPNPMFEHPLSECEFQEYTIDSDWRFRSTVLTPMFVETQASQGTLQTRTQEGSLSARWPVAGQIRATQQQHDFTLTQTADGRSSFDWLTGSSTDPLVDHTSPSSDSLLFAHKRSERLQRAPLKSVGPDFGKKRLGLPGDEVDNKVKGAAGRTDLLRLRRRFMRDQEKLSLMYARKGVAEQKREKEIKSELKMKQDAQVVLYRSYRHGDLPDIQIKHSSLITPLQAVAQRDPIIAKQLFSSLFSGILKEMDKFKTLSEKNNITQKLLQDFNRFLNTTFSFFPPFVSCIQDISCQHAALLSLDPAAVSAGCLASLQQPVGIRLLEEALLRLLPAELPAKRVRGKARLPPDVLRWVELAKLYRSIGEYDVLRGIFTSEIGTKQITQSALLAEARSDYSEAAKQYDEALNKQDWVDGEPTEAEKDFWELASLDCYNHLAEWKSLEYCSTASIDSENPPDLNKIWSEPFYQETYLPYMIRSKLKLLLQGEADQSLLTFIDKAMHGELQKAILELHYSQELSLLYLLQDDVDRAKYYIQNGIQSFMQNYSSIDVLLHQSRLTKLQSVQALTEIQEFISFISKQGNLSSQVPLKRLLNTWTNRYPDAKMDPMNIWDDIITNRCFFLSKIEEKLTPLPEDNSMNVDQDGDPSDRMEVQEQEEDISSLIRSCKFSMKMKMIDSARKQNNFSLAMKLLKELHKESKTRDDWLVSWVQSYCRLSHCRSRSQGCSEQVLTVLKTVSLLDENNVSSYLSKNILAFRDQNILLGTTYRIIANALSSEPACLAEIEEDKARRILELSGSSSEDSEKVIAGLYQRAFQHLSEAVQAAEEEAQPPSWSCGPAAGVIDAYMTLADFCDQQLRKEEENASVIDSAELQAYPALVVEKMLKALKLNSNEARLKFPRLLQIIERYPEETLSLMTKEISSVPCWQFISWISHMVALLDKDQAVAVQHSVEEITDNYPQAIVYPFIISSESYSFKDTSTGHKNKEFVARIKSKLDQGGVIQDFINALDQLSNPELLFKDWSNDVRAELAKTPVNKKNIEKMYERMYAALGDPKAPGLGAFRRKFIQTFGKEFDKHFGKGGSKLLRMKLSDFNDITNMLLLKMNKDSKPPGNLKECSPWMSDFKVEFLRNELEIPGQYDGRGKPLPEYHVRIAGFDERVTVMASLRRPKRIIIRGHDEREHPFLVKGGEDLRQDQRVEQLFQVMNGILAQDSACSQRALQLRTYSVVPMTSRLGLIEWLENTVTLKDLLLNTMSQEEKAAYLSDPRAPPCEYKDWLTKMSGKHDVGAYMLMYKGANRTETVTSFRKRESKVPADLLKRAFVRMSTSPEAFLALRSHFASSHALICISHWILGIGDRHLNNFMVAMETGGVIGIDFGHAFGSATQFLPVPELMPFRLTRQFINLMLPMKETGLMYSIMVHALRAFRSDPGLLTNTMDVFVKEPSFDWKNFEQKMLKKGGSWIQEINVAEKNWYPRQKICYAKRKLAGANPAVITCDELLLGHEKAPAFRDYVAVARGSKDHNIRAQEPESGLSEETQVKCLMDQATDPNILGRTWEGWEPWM
RPS6KA3 (RSK2), sequence (P51812 whole entry): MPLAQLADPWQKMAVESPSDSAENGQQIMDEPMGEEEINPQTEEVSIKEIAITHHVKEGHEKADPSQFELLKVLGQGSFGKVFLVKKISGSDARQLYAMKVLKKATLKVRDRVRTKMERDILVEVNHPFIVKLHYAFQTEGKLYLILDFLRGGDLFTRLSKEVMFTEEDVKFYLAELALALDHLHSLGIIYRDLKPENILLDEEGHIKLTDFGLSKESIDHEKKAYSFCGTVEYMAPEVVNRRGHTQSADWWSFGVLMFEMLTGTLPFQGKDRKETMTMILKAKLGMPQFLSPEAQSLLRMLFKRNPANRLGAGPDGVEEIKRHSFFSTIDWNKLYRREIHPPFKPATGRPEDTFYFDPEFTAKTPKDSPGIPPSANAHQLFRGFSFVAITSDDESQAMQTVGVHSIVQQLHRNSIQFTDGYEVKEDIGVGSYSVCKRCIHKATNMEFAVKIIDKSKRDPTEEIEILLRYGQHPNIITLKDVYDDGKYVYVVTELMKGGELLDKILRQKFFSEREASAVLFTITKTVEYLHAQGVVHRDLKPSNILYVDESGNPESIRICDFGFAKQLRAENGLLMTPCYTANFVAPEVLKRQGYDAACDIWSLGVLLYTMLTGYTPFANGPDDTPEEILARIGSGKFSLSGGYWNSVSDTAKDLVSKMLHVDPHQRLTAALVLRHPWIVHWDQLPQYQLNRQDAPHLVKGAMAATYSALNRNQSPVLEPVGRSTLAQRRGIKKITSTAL

Question: `COc1ccc2nc3cc(Cl)ccc3c(Nc3cc(CN4CCCC4)c(O)c(CN4CCCC4)c3)c2n1` [Pyronaridine, 4-[(7-Chloro-2-methoxybenzo[b][1,5]naphthyridin-10-yl)amino]-2,6-bis(1-pyrrolidinylmethyl)phenol phosphate (1:4)] was tested. Which inhibition at 1 µM [1] did it give?
Answer: The inhibition at 1 µM was 5%.

Question: And the inhibition at 1 µM [2]?
Answer: Its inhibition at 1 µM is 1%.

Question: What about the inhibition at 1 µM [3] of the same compound?
Answer: Its inhibition at 1 µM is 1%.

Question: What about the inhibition at 1 µM [4] of the same compound?
Answer: Its inhibition at 1 µM is 5%.

Question: What about the inhibition at 1 µM [5] of the same compound?
Answer: The inhibition at 1 µM was 0%.

Question: And the inhibition at 1 µM [6]?
Answer: The inhibition at 1 µM was 7%.

Question: What about the inhibition at 1 µM [7] of the same compound?
Answer: Its inhibition at 1 µM is -1%.

Question: What about the inhibition at 1 µM [8] of the same compound?
Answer: The inhibition at 1 µM was 0%.

Question: What about the inhibition at 1 µM [9] of the same compound?
Answer: The inhibition at 1 µM was 4%.

Question: And the inhibition at 1 µM [10]?
Answer: Its inhibition at 1 µM is 2%.

Question: What about the inhibition at 1 µM [11] of the same compound?
Answer: The inhibition at 1 µM was -6%.

Question: And the inhibition at 1 µM [12]?
Answer: The inhibition at 1 µM was -2%.

Question: And the inhibition at 1 µM [13]?
Answer: The inhibition at 1 µM was 5%.

Question: And the inhibition at 1 µM [14]?
Answer: Its inhibition at 1 µM is 5%.

Question: What about the inhibition at 1 µM [15] of the same compound?
Answer: The inhibition at 1 µM was 2%.

Question: What about the inhibition at 1 µM [16] of the same compound?
Answer: Its inhibition at 1 µM is -3%.

Question: What about the inhibition at 1 µM [17] of the same compound?
Answer: The inhibition at 1 µM was 6%.

Question: And the inhibition at 1 µM [18]?
Answer: The inhibition at 1 µM was 0%.

Question: What about the inhibition at 1 µM [19] of the same compound?
Answer: Its inhibition at 1 µM is 1%.

Question: And the inhibition at 1 µM [20]?
Answer: The inhibition at 1 µM was -1%.

Question: And the inhibition at 1 µM [21]?
Answer: The inhibition at 1 µM was 10%.

Question: What about the inhibition at 1 µM [22] of the same compound?
Answer: Its inhibition at 1 µM is 4%.

Question: What about the inhibition at 1 µM [23] of the same compound?
Answer: Its inhibition at 1 µM is 0%.

Question: And the inhibition at 1 µM [24]?
Answer: Its inhibition at 1 µM is -1%.

Question: And the inhibition at 1 µM [25]?
Answer: The inhibition at 1 µM was 5%.

Question: What about the inhibition at 1 µM [26] of the same compound?
Answer: The inhibition at 1 µM was 2%.

Question: What about the inhibition at 1 µM [27] of the same compound?
Answer: Its inhibition at 1 µM is 4%.

Question: And the inhibition at 1 µM [28]?
Answer: The inhibition at 1 µM was -1%.

Question: What about the inhibition at 1 µM [29] of the same compound?
Answer: The inhibition at 1 µM was 11%.
